Tests used:
P2X7 [1] = molecular target: T1, P2X7 (Homo sapiens (Human), UniProt Q99572); assay: P2X7 antagonism in human PBMCs (LPS + Bz-ATP induced IL-1β release, ELISA); format: cell-based; conditions: LPS 30 ng/ml, Bz-ATP 0.5 mM; for PBMC 10 μM (% control): compound 10 μM;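 for all read-outs here: PBMCs from donor human blood, with a further 1.5 h incubation of the cells in the assay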
P2X7 [2] = molecular target: T1, P2X7; assay: Radioligand binding, tritiated A-804598, human P2X7-1321N1 cell membranes; conditions: 1 hour at 4° C.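 Note: ki obtained from the binding IC50 after correction for tracer concentration and tracer affinity.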
Method: (§1) On the day of the experiment, cell membrane preparations were made according to standard published methods. […] The assay was terminated by filtration (GF/B filters pre-soaked with 0.3% PEI) and washed with washing buffer (Tris-HCl 50 mM). The IC50 generated in the binding assay was corrected for tracer concentration and affinity of the tracer to derive at the affinity (Ki) of the test compounds.

rat P2X7 [3] = molecular target: T2, rat P2X7 (Rattus norvegicus (Rat), UniProt Q64663); assay: Radioligand binding, tritiated A-804598, rat P2X7-1321N1 cell membranes; conditions: 1 hour at 4° C.
Method: as §1

P2X7 [4] = molecular target: T1, P2X7; assay: Ca2+ flux (FLIPR) in 1321N1 cells expressing recombinant human P2X7 channel; format: cell-based; conditions: 250 μM BzATP;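 note: Calcium-4 dye-loaded cells exposed to compound for 30 min before agonist addition, fluorescence change read 180 s after agonist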
Method: (§2) Cells were seeded at a density of 25000 cells/well (96-well clear bottom black walled plates) in 100 μl volume/well. On the day of the experiment, cell plates were washed with assay buffer, containing (in mM): 130 NaCl, 2 KCl, 1 CaCl2, 1 MgCl2, 10 HEPES, 5 glucose; pH 7.40 and 300 mOs. After the wash, cells were loaded with the Calcium-4 dye (Molecular Device) and incubated in the dark for 60 minutes. Test compounds were prepared at 250× the test concentration in neat DMSO. Intermediate 96-well compound plates were prepared by transferring 1.2 μL of the compound into 300 μL of assay buffer. A further 3× dilution occurred when transferring 50 μL/well of the compound plate to 100 μL/well in the cell plate. Cells were incubated with test compounds and dye for 30 minutes. […] The fluorescence change was measured 180 seconds after adding the agonist.

rat P2X7 [5] = molecular target: T2, rat P2X7; assay: Ca2+ flux (FLIPR) in 1321N1 cells expressing recombinant rat P2X7 channel; format: cell-based; conditions: 250 μM BzATP;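 note: Calcium-4 dye fluorescence change read 180 s after agonist addition, following 30 min cell preincubation with test compound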
Method: as §2

P2X7 [6] = molecular target: T1, P2X7; assay: P2X7 antagonism in human whole blood (LPS + Bz-ATP induced IL-1β release, ELISA); format: cell-based; conditions: LPS 30 ng/ml, Bz-ATP 1 mM
Method: Human blood was collected using a blood donor program. PBMCs were isolated from blood using a Ficoll density gradient technique. Briefly, blood was laid on Ficoll solution and centrifuged at RT for 20 minutes at 2000 rpm. The buffy layer (between red blood cells and plasma) was carefully collected by aspiration, washed with PBS and centrifuged again at 1500 rpm for 15 minutes. The resulting cell pellet was washed and plated on 96 well-plates for experiments. For the Mouse/Human Whole Blood experiments, 150 μl of either mouse or human blood was platted on 96 well-plates. Lipopolysaccharide (LPS) (30 ng/ml) was added to each well and incubated for 1 hour. Test compounds were then added and incubated for 30 minutes. The P2X7 agonist, 2′(3′)-O-(4-benzoylbenzoyl) adenosine 5′ triphosphate (Bz-ATP) was then added at a final concentration of 0.5 mM (PBMC) or 1 mM (blood). Cells were incubated for an additional 1.5 hours. At that point, supernatant was collected and stored for IL-1β assay using manufacturer's protocol for enzyme-linked immunosorbent assay (ELISA). Data was expressed as percent control, where control is defined as the difference in IL-1β release in LPS+Bz-ATP samples and LPS only samples. Data was plotted as response (% control) versus concentration to generate IC50 values.

T2 sequence (Q64663 whole entry): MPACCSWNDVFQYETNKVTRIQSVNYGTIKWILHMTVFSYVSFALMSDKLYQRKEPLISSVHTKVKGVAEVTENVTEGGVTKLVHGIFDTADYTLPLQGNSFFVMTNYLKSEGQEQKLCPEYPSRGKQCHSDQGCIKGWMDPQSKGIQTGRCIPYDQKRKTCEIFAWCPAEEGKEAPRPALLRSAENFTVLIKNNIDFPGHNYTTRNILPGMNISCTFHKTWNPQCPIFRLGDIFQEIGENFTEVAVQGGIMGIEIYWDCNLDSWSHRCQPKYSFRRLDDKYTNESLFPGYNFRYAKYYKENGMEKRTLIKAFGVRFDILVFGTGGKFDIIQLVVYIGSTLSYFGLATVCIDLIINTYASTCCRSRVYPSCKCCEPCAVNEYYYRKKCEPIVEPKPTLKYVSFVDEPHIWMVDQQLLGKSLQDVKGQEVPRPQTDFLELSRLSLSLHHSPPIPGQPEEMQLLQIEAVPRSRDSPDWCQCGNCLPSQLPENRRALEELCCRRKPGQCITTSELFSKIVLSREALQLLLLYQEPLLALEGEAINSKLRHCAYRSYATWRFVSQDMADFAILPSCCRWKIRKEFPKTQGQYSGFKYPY
T1 sequence (Q99572 whole entry): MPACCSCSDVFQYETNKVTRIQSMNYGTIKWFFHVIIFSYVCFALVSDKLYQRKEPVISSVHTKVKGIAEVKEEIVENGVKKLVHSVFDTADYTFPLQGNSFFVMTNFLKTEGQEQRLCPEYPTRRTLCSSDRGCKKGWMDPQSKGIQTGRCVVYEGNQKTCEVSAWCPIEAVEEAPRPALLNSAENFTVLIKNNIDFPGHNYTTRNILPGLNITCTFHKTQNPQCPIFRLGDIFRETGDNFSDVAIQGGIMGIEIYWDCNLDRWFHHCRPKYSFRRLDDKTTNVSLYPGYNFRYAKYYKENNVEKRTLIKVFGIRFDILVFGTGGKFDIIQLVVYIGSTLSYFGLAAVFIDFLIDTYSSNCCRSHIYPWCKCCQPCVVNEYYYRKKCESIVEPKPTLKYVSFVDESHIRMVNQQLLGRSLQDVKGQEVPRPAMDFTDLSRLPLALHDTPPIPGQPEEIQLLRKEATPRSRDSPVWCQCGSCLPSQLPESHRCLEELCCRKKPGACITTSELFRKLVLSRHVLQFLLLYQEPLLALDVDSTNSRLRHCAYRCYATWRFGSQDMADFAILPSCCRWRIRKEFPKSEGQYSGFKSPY

Row | Structure (SMILES) | PBMC 10 μM (% control) (P2X7 [1]) | Ki (P2X7 [2]) [nM] | Ki (rat P2X7 [3]) [nM] | IC50 (P2X7 [4]) [nM] | IC50 (rat P2X7 [5]) [nM] | IC50 (P2X7 [6]) [nM] | PBMC 1 μM (% control) (P2X7 [1]; compound 1 μM)
1 | C[C@H]1c2nnn(-c3ccn(C)n3)c2CCN1C(=O)c1cccc(C(F)(F)F)c1Cl (single isomer, unassigned) [Example 170, (S*)-(2-Chloro-3-(trifluoromethyl)phenyl)(4-methyl-1-(1-methyl-1H-pyrazol-3-yl)-6,7-dihydro-1H-[1,2,3]triazolo[4,5-c]pyridin-5(4H)-yl)methanone] | −5.7 | 20 | 3.2 | 8.9 | 10.2 |  | 
2 | C[C@H]1c2nnn(-c3ccn(CCF)n3)c2CCN1C(=O)c1cccc(C(F)(F)F)c1Cl (single isomer, unassigned) [Example 172, (S*)-(2-Chloro-3-(trifluoromethyl)phenyl)(1-(1-(2-fluoroethyl)-1H-pyrazol-3-yl)-4-methyl-6,7-dihydro-1H-[1,2,3]triazolo[4,5-c]pyridin-5(4H)-yl)methanone] | −6.0 |  | 5 |  | 5.4 |  | 
3 | O=C(c1cccc(C(F)(F)F)c1F)N1CCc2c(nnn2-c2ncccn2)C1 [Example 66, 5-{[2-Fluoro-3-(trifluoromethyl)phenyl]carbonyl}-1-pyrimidin-2-yl-4,5,6,7-tetrahydro-1H-[1,2,3]triazolo[4,5-c]pyridine] | 2.7 | 15.8 |  | 17.4 | 206 | 363 | 
4 | O=C(c1cccc(Cl)c1Cl)N1CCc2c(nnn2-c2ncccn2)C1 [Example 67, 5-[(2,3-Dichlorophenyl)carbonyl]-1-pyrimidin-2-yl-4,5,6,7-tetrahydro-1H-[1,2,3]triazolo[4,5-c]pyridine] | 6.5 | 7.9 |  | 3 | 78.9 | 158 | 
5 | O=C(c1cccc(Cl)c1Cl)N1CCc2c(nnn2-c2cnccn2)C1 [Example 70, 5-[(2,3-Dichlorophenyl)carbonyl]-1-pyrazin-2-yl-4,5,6,7-tetrahydro-1H-[1,2,3]triazolo[4,5-c]pyridine] | 10.6 | 12.6 |  | 7.5 | 1330 | 501 | 
6 | O=C(c1cccc(C(F)(F)F)c1Cl)N1CCc2c(-c3ccccc3)n[nH]c2C1 [Example 99, (2-Chloro-3-(trifluoromethyl)phenyl)(3-phenyl-4,5-dihydro-1H-pyrazolo[3,4-c]pyridin-6(7H)-yl)methanone] |  | 81.3 | 741 | 11.5 | 195 |  | 7.0
7 | O=C(c1ccc(F)c(Cl)c1Cl)N1CCc2c(nnn2-c2ccccn2)C1 [Example 130, (2,3-Dichloro-4-fluorophenyl)(1-(pyridin-2-yl)-6,7-dihydro-1H-[1,2,3]triazolo[4,5-c]pyridin-5(4H)-yl)methanone] | 3.7 | 50.1 |  | 3.6 | 154 | 501 | 
8 | O=C(c1cccc(C(F)(F)F)c1Cl)N1CCc2c(nnn2-c2cc(F)ccn2)C1 [Example 131, (2-Chloro-3-(trifluoromethyl)phenyl)(1-(4-fluoropyridin-2-yl)-6,7-dihydro-1H-[1,2,3]triazolo[4,5-c]pyridin-5(4H)-yl)methanone] | 8.3 | 50.1 |  | 2.9 | 51.5 | 316 | 
9 | Cc1ccnc(-n2nnc3c2CCN(C(=O)c2cccc(C(F)(F)F)c2Cl)[C@@H]3C)n1 [Example 235, (4R)-(2-Chloro-3-(trifluoromethyl)phenyl)(4-methyl-1-(4-methylpyrimidin-2-yl)-6,7-dihydro-1H-[1,2,3]triazolo[4,5-c]pyridin-5(4H)-yl)methanone] | −3.7 | 14.1 | 3.1 | 5.4 | 6.6 |  | 
10 | CCc1nc2c(n1-c1ccccc1)CCN(C(=O)c1cccc(Cl)c1Cl)C2 [Example 332, (2,3-dichlorophenyl)(2-ethyl-1-phenyl-6,7-dihydro-1H-imidazo[4,5-c]pyridin-5(4H)-yl)methanone] | −9.5 | 631 |  | 217 | 3720 |  | 
11 | C[C@H]1c2nnn(-c3cncnc3)c2CCN1C(=O)c1cccc(C(F)(F)F)c1Cl [Example 333, (S)-(2-chloro-3-(trifluoromethyl)phenyl)(4-methyl-1-(pyrimidin-5-yl)-6,7-dihydro-1H-[1,2,3]triazolo[4,5-c]pyridin-5(4H)-yl)methanone] | 6.9 | 63.1 |  | 101 | > 10000 |  | 
12 | Cc1ccc(-n2nnc3c2CCN(C(=O)c2cccc(Cl)c2Cl)C3C)nc1 (stereo not shown) [Example 336, (2,3-dichlorophenyl)(4-methyl-1-(5-methylpyridin-2-yl)-6,7-dihydro-1H-[1,2,3]triazolo[4,5-c]pyridin-5(4H)-yl)methanone] | −0.5 | 372 |  | 289 | 2160 |  | 

— patent US9464084B2, “P2X7 modulators” (Janssen Pharmaceutica NV, priority 2013, dated 2016)
